We go through 31 molecules from patent US20230303540A1 (Merck Sharp & Dohme LLC, priority 2020, published 2023).

For this experiment, the target named is GST-tagged truncated human mutant G2019S LRRK2 (Homo sapiens, UniProt Q5S007, G2019S). In words: LRRK2 G2019S Km ATP LanthaScreen assay. The note with it: 134 μM ATP (Km ATP), LRRKtide substrate, mean IC50 values; read-out: LRRK2 pIC50 (converted). Type of experiment: biochemical. A digest of the protocol:
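LanthaScreen TR-FRET read with fluorescein-LRRKtide and 134 μM ATP (Km) in Tris pH 8.5/10 mM MgCl2 buffer. The enzyme was preincubated 15 min with compound at room temperature, and the reaction ran 90 min at ambient temperature. Stopped with EDTA plus Tb anti-phospho-LRRKtide antibody; the 520/495 nm ratio gave a 4-parameter logistic IC50, mean of several runs.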
(TR-FRET usually uses a lanthanide donor and a delayed reading to cut background.)
Regarding `CN1CCN(c2cc3nc(Nc4cnn(C5(C)CC5)c4Cl)ncc3cc2Cl)CC1=O` [Ex-4.44, 4-(6-chloro-2-{[5-chloro-1-(1-methylcyclopropyl)-1H-pyrazol-4-yl]amino}quinazolin-7-yl)-1-methylpiperazin-2-one], the IC50 is 20 nM. With `CC1(n2ncc(Nc3ncc4cc(Cl)c(N5CCn6cnnc6C5)cc4n3)c2Cl)CC1` [Ex-4.45, 6-chloro-N-[5-chloro-1-(1-methylcyclopropyl)-1H-pyrazol-4-yl]-7-(5,6-dihydro[1,2,4]triazolo[4,3-a]pyrazin-7(8H)-yl)quinazolin-2-amine], the IC50 was 1.27 nM.

Take `CC1(N2CCN(c3cc4nc(Nc5cnn(C(C)(C)C)c5)ncc4cc3Cl)CC2)COC1` [Ex-4.46, N-(1-tert-butyl-1H-pyrazol-4-yl)-6-chloro-7-[4-(3-methyloxetan-3-yl)piperazin-1-yl]quinazolin-2-amine]: the IC50 was 0.792 nM. Then `Cn1ncc(Nc2ncc3cc(Cl)c(N4CCN(C5(C)COC5)CC4)cc3n2)c1Cl` [Ex-4.47, 6-chloro-N-(5-chloro-1-methyl-1H-pyrazol-4-yl)-7-[4-(3-methyloxetan-3-yl)piperazin-1-yl]quinazolin-2-amine], with 8.56 nM; and `CC1(N2CCN(c3cc4nc(Nc5cnn(CC6CC6)c5Cl)ncc4cc3Cl)CC2)COC1` [Ex-4.48, 6-chloro-N-[5-chloro-1-(cyclopropylmethyl)-1H-pyrazol-4-yl]-7-[4-(3-methyloxetan-3-yl)piperazin-1-yl]quinazolin-2-amine], with 0.625 nM. Then `CC1(N2CCN(c3cc4nc(Nc5cnn(C6COC6)c5Cl)ncc4cc3Cl)CC2)COC1` [Ex-4.49, 6-chloro-N-[5-chloro-1-(oxetan-3-yl)-1H-pyrazol-4-yl]-7-[4-(3-methyloxetan-3-yl)piperazin-1-yl]quinazolin-2-amine], with 1.87 nM; and `CC1(N2CCN(c3cc4nc(Nc5cnn(C6CCC6)c5Cl)ncc4cc3Cl)CC2)COC1` [Ex-4.50, 6-chloro-N-(5-chloro-1-cyclobutyl-1H-pyrazol-4-yl)-7-[4-(3-methyloxetan-3-yl)piperazin-1-yl]quinazolin-2-amine], with 4.61 nM. As for `CC(C)(O)Cn1ncc(Nc2ncc3cc(Cl)c(N4CCN(C5(C)COC5)CC4)cc3n2)c1Cl` [Ex-4.51, 1-[5-chloro-4-({6-chloro-7-[4-(3-methyloxetan-3-yl)piperazin-1-yl]quinazolin-2-yl}amino)-1H-pyrazol-1-yl]-2-methylpropan-2-ol], the IC50 was 2.76 nM. Regarding `CC1(Cn2ncc(Nc3ncc4cc(Cl)c(N5CCN(C6(C)COC6)CC5)cc4n3)c2Cl)COC1` [Ex-4.52, 6-chloro-N-{5-chloro-1-[(3-methyloxetan-3-yl)methyl]-1H-pyrazol-4-yl}-7-[4-(3-methyloxetan-3-yl)piperazin-1-yl]quinazolin-2-amine], the IC50 is 1.89 nM. Consider `CC1(N2CCN(c3cc4nc(Nc5cnn(CC6(C#N)CC6)c5)ncc4cc3Cl)CC2)COC1` [Ex-4.53, 1-{[4-({6-chloro-7-[4-(3-methyloxetan-3-yl)piperazin-1-yl]quinazolin-2-yl}amino)-1H-pyrazol-1-yl]methyl}cyclopropane-1-carbonitrile], for which the IC50 was 1.82 nM. For `CC1(N2CCN(c3cc4nc(Nc5cnn(CC6CCC6)c5Cl)ncc4cc3Cl)CC2)COC1` [Ex-4.54, 6-chloro-N-[5-chloro-1-(cyclobutylmethyl)-1H-pyrazol-4-yl]-7-[4-(3-methyloxetan-3-yl)piperazin-1-yl]quinazolin-2-amine], the IC50 was 2.87 nM. With `Cc1c(Nc2ncc3cc(Cl)c(N4CCN(C5(C)COC5)CC4)cc3n2)cnn1CC(C)(C)O` [Ex-4.55, 1-[4-({6-chloro-7-[4-(3-methyloxetan-3-yl)piperazin-1-yl]quinazolin-2-yl}amino)-5-methyl-1H-pyrazol-1-yl]-2-methylpropan-2-ol] the figure was 11.1 nM; with `CC1(N2CCN(c3cc4nc(Nc5cnn(C(F)F)c5)ncc4cc3Cl)CC2)COC1` [Ex-4.57, 6-chloro-N-[1-(difluoromethyl)-1H-pyrazol-4-yl]-7-[4-(3-methyloxetan-3-yl)piperazin-1-yl]quinazolin-2-amine], 4.13 nM; with `CC1(N2CCN(c3cc4nc(Nc5cnn(C6CC6)c5Cl)ncc4cc3Cl)CC2)COC1` [Ex-4.58, 6-chloro-N-(5-chloro-1-cyclopropyl-1H-pyrazol-4-yl)-7-[4-(3-methyloxetan-3-yl)piperazin-1-yl]quinazolin-2-amine], 2.32 nM. With `CC(C)(O)Cn1cc(Nc2ncc3cc(Cl)c(N4CCN(C5(C)COC5)CC4)cc3n2)cn1` [Ex-4.59, 1-[4-({6-chloro-7-[4-(3-methyloxetan-3-yl)piperazin-1-yl]quinazolin-2-yl}amino)-1H-pyrazol-1-yl]-2-methylpropan-2-ol] the figure was 5.26 nM; with `Cc1cc(Nc2ncc3cc(Cl)c(N4CCN(C5(C)COC5)CC4)cc3n2)sn1` [Ex-4.62, 6-chloro-7-[4-(3-methyloxetan-3-yl)piperazin-1-yl]-N-(3-methyl-1,2-thiazol-5-yl)quinazolin-2-amine], 0.793 nM; with `CC1(N2CCN(c3cc4nc(Nc5ccn(CC(F)(F)F)n5)ncc4cc3Cl)CC2)COC1` [Ex-4.63, 6-chloro-7-[4-(3-methyloxetan-3-yl)piperazin-1-yl]-N-[1-(2,2,2-trifluoroethyl)-1H-pyrazol-3-yl]quinazolin-2-amine], 28.3 nM.

For the molecule `CC(C)(C)Cn1cc(Nc2ncc3cc(Cl)c(N4CCN(C5(C)COC5)CC4)cc3n2)cn1` [Ex-4.64, 6-chloro-N-[1-(2,2-dimethylpropyl)-1H-pyrazol-4-yl]-7-[4-(3-methyloxetan-3-yl)piperazin-1-yl]quinazolin-2-amine], the IC50 was 9.73 nM. With `CC1(N2CCN(c3cc4nc(Nc5cnn(CC6C[C@@H](F)[C@H](F)C6)c5)ncc4cc3Cl)CC2)COC1` [Ex-4.65, 6-chloro-N-(1-{[(3R,4R)-3,4-difluorocyclopentyl]methyl}-1H-pyrazol-4-yl)-7-[4-(3-methyloxetan-3-yl)piperazin-1-yl]quinazolin-2-amine], the IC50 is 23.9 nM. With `CC1(N2CCN(c3cc4nc(Nc5cnn(CC6C[C@H](F)[C@@H](F)C6)c5)ncc4cc3Cl)CC2)COC1` [Ex-4.66, 6-chloro-N-(1-{[(3S,4S)-3,4-difluorocyclopentyl]methyl}-1H-pyrazol-4-yl)-7-[4-(3-methyloxetan-3-yl)piperazin-1-yl]quinazolin-2-amine], the IC50 was 8.88 nM. Then `Cc1nscc1Nc1ncc2cc(Cl)c(N3CCN(C4(C)COC4)CC3)cc2n1` [Ex-4.67, 6-chloro-7-[4-(3-methyloxetan-3-yl)piperazin-1-yl]-N-(3-methyl-1,2-thiazol-4-yl)quinazolin-2-amine], with 23.8 nM; and `CCn1ncc(Nc2ncc3cc(Cl)c(N4CCN(C5(C)COC5)CC4)cc3n2)c1Cl` [Ex-4.68, 6-chloro-N-(5-chloro-1-ethyl-1H-pyrazol-4-yl)-7-[4-(3-methyloxetan-3-yl)piperazin-1-yl]quinazolin-2-amine], with 3.38 nM; and `COC1CC(Cn2ncc(Nc3ncc4cc(Cl)c(N5CCN(C6(C)COC6)CC5)cc4n3)c2Cl)C1` (stereo not shown) [Ex-4.69, 6-chloro-N-{5-chloro-1-[(3-methoxycyclobutyl)methyl]-1H-pyrazol-4-yl}-7-[4-(3-methyloxetan-3-yl)piperazin-1-yl]quinazolin-2-amine], with 3.23 nM. Take `CC1(N2CCN(c3cc4nc(Nc5cnn(CC6CC6(F)F)c5)ncc4cc3Cl)CC2)COC1` (stereo not shown) [Ex-4.70, 6-chloro-N-{1-[(2,2-difluorocyclopropyl)methyl]-1H-pyrazol-4-yl}-7-[4-(3-methyloxetan-3-yl)piperazin-1-yl]quinazolin-2-amine]: the IC50 was 4.93 nM.

As for `FC1(F)CC(N2CCN(c3cc4nc(Nc5cnn(C6CC6)c5Cl)ncc4cc3Cl)CC2)C1` [Ex-4.71, 6-chloro-N-(5-chloro-1-cyclopropyl-1H-pyrazol-4-yl)-7-(4-(3,3-difluorocyclobutyl)piperazin-1-yl)quinazolin-2-amine], the IC50 was 11.1 nM.

For the molecule `Cc1cc2cnc(Nc3cnn(C4(C)CC4)c3Cl)nc2cc1N1CCN(C2(C)COC2)CC1` [Ex-5.9, N-[5-chloro-1-(1-methylcyclopropyl)-1H-pyrazol-4-yl]-6-methyl-7-[4-(3-methyloxetan-3-yl)piperazin-1-yl]quinazolin-2-amine], the IC50 was 0.64 nM. With `Cc1cc2cnc(Nc3cnn(C4CC4)c3Cl)nc2cc1N1CCN(C2(C)COC2)CC1` [Ex-5.10, N-(5-chloro-1-cyclopropyl-1H-pyrazol-4-yl)-6-methyl-7-[4-(3-methyloxetan-3-yl)piperazin-1-yl]quinazolin-2-amine] the figure was 5.67 nM; with `Cc1cc2cnc(Nc3cnn(C4CC4)c3C)nc2cc1N1CCN(C2(C)COC2)CC1` [Ex-5.11, N-(1-cyclopropyl-5-methyl-1H-pyrazol-4-yl)-6-methyl-7-[4-(3-methyloxetan-3-yl)piperazin-1-yl]quinazolin-2-amine], 2.82 nM; with `Cc1cc2cnc(Nc3cnn(C4CC4(F)F)c3Cl)nc2cc1N1CCNCC1` (stereo not shown) [Ex-5.14, N-(5-chloro-1-(2,2-difluorocyclopropyl)-1H-pyrazol-4-yl)-6-methyl-7-(piperazin-1-yl)quinazolin-2-amine], 11.6 nM. `Cc1cc2cnc(Nc3cnn(C45CC(F)(C4)C5)c3Cl)nc2cc1N1CCNCC1` [Ex-5.15, N-(5-chloro-1-(3-fluorobicyclo[1.1.1]pentan-1-yl)-1H-pyrazol-4-yl)-6-methyl-7-(piperazin-1-yl)quinazolin-2-amine]: the IC50 was 25.1 nM. On to `CC1(N2CCN(c3cc4nc(Nc5cnn(CC(F)F)c5)ncc4cc3Cl)CC2)COC1` [Ex-6.1, 6-chloro-N-(1-(2,2-difluoroethyl)-1H-pyrazol-4-yl)-7-(4-(3-methyloxetan-3-yl)piperazin-1-yl)quinazolin-2-amine], for which the IC50 was 5.68 nM.
